PubChem BioAssay (NCI)
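Protocol summary: plate cells (96-well), add compound at 5 concentrations, incubate 48 h, interpolate endpoints linearly. Abbreviation: GI50, concentration required for 50% inhibition of growth. TGI denotes the concentration required for complete inhibition of growth.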

Key:
Experiment in all cases: NCI-60 cell line screen, 48 h
[1] = test system: SW-620 colon
[2] = test system: OVCAR-3 ovarian
[3] = test system: ACHN renal
[4] = test system: PC-3 prostate
[5] = test system: HT29 colon
[6] = test system: MOLT-4 leukemia
[7] = test system: HCC-2998 colon
[8] = test system: U251 CNS
[9] = test system: MCF7 breast
[10] = test system: HOP-92 NSCLC
[11] = test system: SK-MEL-28 melanoma
[12] = test system: CAKI-1 renal
[13] = test system: SNB-75 CNS
[14] = test system: SK-MEL-2 melanoma
[15] = test system: A498 renal
[16] = test system: SF-539 CNS
[17] = test system: HOP-62 NSCLC
[18] = test system: NCI-H23 lung
[19] = test system: RXF 393 renal
[20] = test system: HCT-15 colon
[21] = test system: SF-295 CNS
[22] = test system: A549 NSCLC
[23] = test system: MDA-MB-468 breast
[24] = test system: SR leukemia
[25] = test system: LOX IMVI melanoma
[26] = test system: CCRF-CEM leukemia
[27] = test system: BT-549 breast
[28] = test system: T-47D breast
[29] = test system: COLO 205 colon
[30] = test system: UACC-257 melanoma

Compound: CN(C)c1ccc(/C=C/c2n(Cc3ccc4ccccc4c3)c3ccccc3[n+]2Cc2ccc3ccccc3c2)cc1
- GI50 [1]: 319 nM
- TGI [1]: 1310 nM
- GI50 [2]: 267 nM
- TGI [2]: 1250 nM
- GI50 [3]: 326 nM
- TGI [3]: 1210 nM
- GI50 [4]: 250 nM
- TGI [4]: 1250 nM
- GI50 [5]: 235 nM
- TGI [5]: 1340 nM
- GI50 [6]: 303 nM
- TGI [6]: 1660 nM
- GI50 [7]: 325 nM
- TGI [7]: 1330 nM
- GI50 [8]: 166 nM
- TGI [8]: 1270 nM
- GI50 [9]: 281 nM
- TGI [9]: 1100 nM
- GI50 [10]: 162 nM
- TGI [10]: 600 nM
- GI50 [11]: 491 nM
- TGI [11]: 1710 nM
- GI50 [12]: 331 nM
- TGI [12]: 1310 nM
- GI50 [13]: 240 nM
- TGI [13]: 1140 nM
- GI50 [14]: 271 nM
- TGI [14]: 770 nM
- GI50 [15]: 269 nM
- TGI [15]: 1150 nM
- GI50 [16]: 346 nM
- TGI [16]: 1330 nM
- GI50 [17]: 351 nM
- TGI [17]: 1410 nM
- GI50 [18]: 250 nM
- TGI [18]: 752 nM
- GI50 [19]: 231 nM
- TGI [19]: 1020 nM
- GI50 [20]: 458 nM
- TGI [20]: 1740 nM
- GI50 [21]: 266 nM
- TGI [21]: 996 nM
- GI50 [22]: 317 nM
- TGI [22]: 1520 nM
- GI50 [23]: 165 nM
- TGI [23]: 731 nM
- GI50 [24]: 399 nM
- TGI [24]: 2300 nM
- GI50 [25]: 269 nM
- TGI [25]: 999 nM
- GI50 [26]: 315 nM
- TGI [26]: 1410 nM
- GI50 [27]: 187 nM
- TGI [27]: 809 nM
- GI50 [28]: 294 nM
- TGI [28]: 1500 nM
- GI50 [29]: 211 nM
- TGI [29]: 434 nM
- GI50 [30]: 265 nM
